Laboratory results from PubChem BioAssay (NCI).
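The compound was tested at five concentrations on cells cultured in 96-well plates, with a 48-hour exposure period. Definition used: TGI = concentration required for complete inhibition of growth.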

Key:
Experiment in all cases: NCI anticancer screen, dose series, 48 h
PC-3 prostate = test system: PC-3 prostate
K-562 leukemia = test system: K-562 leukemia
NCI/ADR-RES ovarian = test system: NCI/ADR-RES ovarian
SW-620 colon = test system: SW-620 colon
SN12C renal = test system: SN12C renal
SNB-75 CNS = test system: SNB-75 CNS
SK-OV-3 ovarian = test system: SK-OV-3 ovarian
HCT-116 colon = test system: HCT-116 colon
NCI-H460 lung = test system: NCI-H460 lung
SF-268 CNS = test system: SF-268 CNS
786-0 renal = test system: 786-0 renal
CAKI-1 renal = test system: CAKI-1 renal
RXF 393 renal = test system: RXF 393 renal
HCT-15 colon = test system: HCT-15 colon
ACHN renal = test system: ACHN renal
KM12 colon = test system: KM12 colon
SNB-19 CNS = test system: SNB-19 CNS
M14 melanoma = test system: M14 melanoma
NCI-H23 lung = test system: NCI-H23 lung
SF-539 CNS = test system: SF-539 CNS
A549 NSCLC = test system: A549 NSCLC
HS 578T breast = test system: HS 578T breast
SK-MEL-2 melanoma = test system: SK-MEL-2 melanoma
DU-145 prostate = test system: DU-145 prostate
TK-10 renal = test system: TK-10 renal
HOP-92 NSCLC = test system: HOP-92 NSCLC
MDA-MB-231 breast = test system: MDA-MB-231 breast
EKVX NSCLC = test system: EKVX NSCLC
SF-295 CNS = test system: SF-295 CNS
HL-60(TB) leukemia = test system: HL-60(TB) leukemia
RPMI-8226 leukemia = test system: RPMI-8226 leukemia
T-47D breast = test system: T-47D breast
SR leukemia = test system: SR leukemia
UACC-257 melanoma = test system: UACC-257 melanoma
NCI-H522 lung = test system: NCI-H522 lung
MDA-MB-435 = test system: MDA-MB-435
COLO 205 colon = test system: COLO 205 colon
U251 CNS = test system: U251 CNS
MALME-3M melanoma = test system: MALME-3M melanoma
OVCAR-8 ovarian = test system: OVCAR-8 ovarian
BT-549 breast = test system: BT-549 breast
OVCAR-5 ovarian = test system: OVCAR-5 ovarian
SK-MEL-5 melanoma = test system: SK-MEL-5 melanoma
UACC-62 melanoma = test system: UACC-62 melanoma
IGROV1 ovarian = test system: IGROV1 ovarian
MCF7 breast = test system: MCF7 breast
NCI-H226 lung = test system: NCI-H226 lung
UO-31 renal = test system: UO-31 renal
MDA-N = test system: MDA-N
HT29 colon = test system: HT29 colon
A498 renal = test system: A498 renal
OVCAR-4 ovarian = test system: OVCAR-4 ovarian
CCRF-CEM leukemia = test system: CCRF-CEM leukemia
OVCAR-3 ovarian = test system: OVCAR-3 ovarian
MOLT-4 leukemia = test system: MOLT-4 leukemia
HOP-62 NSCLC = test system: HOP-62 NSCLC
LOX IMVI melanoma = test system: LOX IMVI melanoma
SK-MEL-28 melanoma = test system: SK-MEL-28 melanoma

Structure (SMILES): N#CCCC(CCC#N)(CCC#N)NO
- TGI (PC-3 prostate): > 100 µM
- TGI (K-562 leukemia): > 100 µM
- TGI (NCI/ADR-RES ovarian): > 100 µM
- TGI (SW-620 colon): > 100 µM
- TGI (SN12C renal): > 100 µM
- TGI (SNB-75 CNS): > 100 µM
- TGI (SK-OV-3 ovarian): > 100 µM
- TGI (HCT-116 colon): > 100 µM
- TGI (NCI-H460 lung): > 100 µM
- TGI (SF-268 CNS): > 100 µM
- TGI (786-0 renal): > 100 µM
- TGI (CAKI-1 renal): > 100 µM
- TGI (RXF 393 renal): > 100 µM
- TGI (HCT-15 colon): > 100 µM
- TGI (ACHN renal): > 100 µM
- TGI (KM12 colon): > 100 µM
- TGI (SNB-19 CNS): > 100 µM
- TGI (M14 melanoma): > 100 µM
- TGI (NCI-H23 lung): > 100 µM
- TGI (SF-539 CNS): > 100 µM
- TGI (A549 NSCLC): > 100 µM
- TGI (HS 578T breast): > 100 µM
- TGI (SK-MEL-2 melanoma): > 100 µM
- TGI (DU-145 prostate): > 100 µM
- TGI (TK-10 renal): > 100 µM
- TGI (HOP-92 NSCLC): > 100 µM
- TGI (MDA-MB-231 breast): > 100 µM
- TGI (EKVX NSCLC): > 100 µM
- TGI (SF-295 CNS): > 100 µM
- TGI (HL-60(TB) leukemia): > 100 µM
- TGI (RPMI-8226 leukemia): > 100 µM
- TGI (T-47D breast): > 100 µM
- TGI (SR leukemia): > 100 µM
- TGI (UACC-257 melanoma): > 100 µM
- TGI (NCI-H522 lung): 46.1 µM
- TGI (MDA-MB-435): > 100 µM
- TGI (COLO 205 colon): > 100 µM
- TGI (U251 CNS): > 100 µM
- TGI (MALME-3M melanoma): > 100 µM
- TGI (OVCAR-8 ovarian): > 100 µM
- TGI (BT-549 breast): > 100 µM
- TGI (OVCAR-5 ovarian): > 100 µM
- TGI (SK-MEL-5 melanoma): > 100 µM
- TGI (UACC-62 melanoma): > 100 µM
- TGI (IGROV1 ovarian): > 100 µM
- TGI (MCF7 breast): > 100 µM
- TGI (NCI-H226 lung): > 100 µM
- TGI (UO-31 renal): > 100 µM
- TGI (MDA-N): > 100 µM
- TGI (HT29 colon): > 100 µM

Structure (SMILES): CN(C(=O)Cc1cccc(N=C=S)c1)[C@H]1CCCC[C@@H]1N1CCCC1
- TGI (PC-3 prostate): 32.2 µM
- TGI (K-562 leukemia): 53.2 µM
- TGI (NCI/ADR-RES ovarian): 79.8 µM
- TGI (SW-620 colon): 36.2 µM
- TGI (SN12C renal): 29.5 µM
- TGI (SNB-75 CNS): 27.8 µM
- TGI (A498 renal): 32.8 µM
- TGI (SK-OV-3 ovarian): 69.4 µM
- TGI (HCT-116 colon): 26 µM
- TGI (NCI-H460 lung): 36.3 µM
- TGI (OVCAR-4 ovarian): 28.5 µM
- TGI (SF-268 CNS): 36.4 µM
- TGI (786-0 renal): 28.6 µM
- TGI (CAKI-1 renal): 29.5 µM
- TGI (RXF 393 renal): 25.9 µM
- TGI (CCRF-CEM leukemia): 32.9 µM
- TGI (HCT-15 colon): 31.2 µM
- TGI (ACHN renal): 27.2 µM
- TGI (KM12 colon): 32.1 µM
- TGI (OVCAR-3 ovarian): 28 µM
- TGI (SNB-19 CNS): 47.6 µM
- TGI (MOLT-4 leukemia): 29 µM
- TGI (M14 melanoma): 41.1 µM
- TGI (HOP-62 NSCLC): 33.2 µM
- TGI (LOX IMVI melanoma): 31.3 µM
- TGI (NCI-H23 lung): 29.5 µM
- TGI (A549 NSCLC): 33.9 µM
- TGI (HS 578T breast): 45 µM
- TGI (SK-MEL-2 melanoma): 34.4 µM
- TGI (DU-145 prostate): 27.7 µM
- TGI (TK-10 renal): 24.3 µM
- TGI (HOP-92 NSCLC): 29 µM
- TGI (MDA-MB-231 breast): 31.8 µM
- TGI (SK-MEL-28 melanoma): 32.8 µM
- TGI (EKVX NSCLC): 39.6 µM
- TGI (SF-295 CNS): > 100 µM
- TGI (RPMI-8226 leukemia): 32.3 µM
- TGI (T-47D breast): 26.8 µM
- TGI (SR leukemia): 29.2 µM
- TGI (UACC-257 melanoma): 28.9 µM
- TGI (NCI-H522 lung): 27.6 µM
- TGI (MDA-MB-435): 27.8 µM
- TGI (COLO 205 colon): 25.2 µM
- TGI (U251 CNS): 32.3 µM
- TGI (MALME-3M melanoma): 40.5 µM
- TGI (OVCAR-8 ovarian): 42.2 µM
- TGI (BT-549 breast): 23.8 µM
- TGI (OVCAR-5 ovarian): 36.1 µM
- TGI (SK-MEL-5 melanoma): 20.4 µM
- TGI (UACC-62 melanoma): 29.4 µM
- TGI (IGROV1 ovarian): 28.1 µM
- TGI (MCF7 breast): 27.5 µM
- TGI (UO-31 renal): 29.3 µM
- TGI (MDA-N): 27.7 µM
- TGI (HT29 colon): 26.4 µM
